Consider 8 compounds from US6472385B1, “Compositions and methods to enhance cancer chemotherapy in p53 defective tumors” (priority 1999, dated 2002).

For assay [1], the system named is p53 defective human breast cancer cells lines, MDA-MD-231 and T47D. In words: Selectivity of arrest abrogation for p53 defective cell lines. The format is cell-based. Here is the method: The breast cancer cell lines were obtained from the American Type Culture Collection (Rockville, Md.). The cells were maintained in Dulbecco's modified Eagle's Medium supplemented with 10% fetal bovine serum, penicillin (100 units/ml), streptomycin (100 μg/ml) and fungizone (0.25 μg/ml).

For assay [2], the system named is DNA damage-induced cell cycle arrest. Kind of assay: Cell cycle arrest abrogation in the presence of human plasma / plasma proteins. It is filed as cell-based. The settings on record: human plasma / human plasma proteins added. Here is the method: However, in K252a the hexose. moiety is replaced with a pentose moiety. […] It is believed that the pentose ring of this structure prevents binding of this compound to human plasma proteins.
Experiments of cell cycle analysis were conducted in accordance with procedures described by Demarcq et al. Cell Growth and Differ. 1994 5:983-993; Bunch, R. T. and Eastman, A. Clinical Cancer Research 1996 2:791-7; and Bunch, R. T. and Eastman, A. Cell Growth and Differ. 1997 8:779-788.

Assay [3] shares this test system. In words: Cell cycle analysis: abrogation of DNA damage-induced cell cycle arrest. It is filed as cell-based. To be noted: for G2 arrest caused by the compound itself: compound alone / at concentrations capable of abrogating arrest. The procedure:
Experiments of cell cycle analysis were conducted in accordance with procedures described by […] et al. Cell Growth and Differ. 1994 5:983-993; Bunch, R. T. and Eastman, A. […] T. and Eastman, A. Cell Growth and Differ. 1997 8:779-788.

Assay [4] has as its system human prostate carcinoma cells. The settings on record: cited from earlier work.
The next assay relates to human cells. The settings on record: cited from earlier work.
The test system of assay [5] is Chinese hamster ovary cells. To be noted: Chinese hamster ovary cells incubated with cisplatin; cited from earlier work.
For assay [6], the system named is G2 checkpoint activated by DNA damage. To be noted: literature; UCN-01: noncytotoxic doses, cisplatin; cited from earlier work.

In the case of `COC(=O)[C@@]1(O)CC2O[C@]1(C)n1c3ccccc3c3c4c(c5c6ccccc6n2c5c31)C(=O)NC4=O` [ICP1], the “selectivity of abrogation of cell arrest for p53 defective cell lines” value in assay [1] was “selective for p53 defective cell lines”. In addition, in assay [2], the “activity (abrogation of cell cycle arrest) in the presence of human plasma” value is “maintain its ability to abrogate cell cycle arrest”. Moreover, the “G2 arrest caused by the compound itself” value in assay [3] is recorded as “does not cause G2 arrest”. Moreover, the “abrogation of cell cycle arrest” value in assay [3] (non-toxic concentrations) was “abrogates cell cycle arrest at non-toxic concentrations”.
`COC(=O)[C@@]1(O)CC2O[C@]1(C)n1c3ccccc3c3c4c(c5c6ccccc6n2c5c31)C(=O)NC4` [K252a]: in assay [4], the “inhibition of growth of human prostate carcinoma cells” value is reported as “inhibit the growth”. Moreover, the “activity (abrogation of cell cycle arrest) in the presence of human plasma” value in assay [2] was “not inhibited”. Besides, in assay [3] (G2 phase), the “abrogation of cell cycle arrest in the G2 phase” value is given as “does not abrogate cell cycle arrest in the G2 phase”. For the same compound, the “abrogation of cell cycle arrest in the S phase” value in assay [3] (S phase) is reported as “only abrogates cell cycle arrest in the S phase”. The “G2 arrest caused by the compound itself” value in assay [3] is “causes G2 arrest”.
As to `CN[C@@H]1C[C@H]2O[C@@](C)([C@@H]1OC)n1c3ccccc3c3c4c(c5c6ccccc6n2c5c31)C(=O)N[C@H]4O` [UCN-01, 7-hydroxystaurosporine], in the assay on human cells, the “abrogation of S phase arrest” value was “Abrogation of S phase arrest has also been observed”. The “abrogation of S-phase arrest” value in assay [5] is reported as “abrogates this S-phase arrest”. The “abrogation of G2 checkpoint / G2 arrest after DNA damage” value (from here on “abrogation of G2 checkpoint / G2 arrest”) in assay [6] is on record as “abrogate the G2 arrest”.
With `COC[C@@H]([C@H](O)[C@H](O)C(=O)NCC[C@H](C)c1nc(/C=C/C[C@@H]2O[C@]3(C[C@@H](O)[C@@H]2C)O[C@H]([C@H](C[C@H](O)[C@H](C)[C@H](O)[C@H](C)/C=C(C)/C(C)=C/C=C/C(C)=C\C#N)OC)[C@H](OP(=O)(O)O)C3(C)C)co1)N(C)C` [calyculin A], the “abrogation of G2 checkpoint / G2 arrest” value in assay [6] is reported as “abrogate the G2 checkpoint”.
With `C[C@@](O)(/C=C/[C@H]1CC=CC(=O)O1)[C@@H](C[C@@H](O)\C=C/C=C\C=C\CO)OP(=O)(O)O` [fostriecin], the “abrogation of G2 checkpoint / G2 arrest” value in assay [6] is “abrogate the G2 checkpoint”.
In the case of `C=C1[C@@H](O)[C@@H]2O[C@]3(CC[C@H](/C=C/[C@@H](C)[C@@H]4CC(C)=C[C@@]5(O[C@H](C[C@@](C)(O)C(=O)O)CC[C@H]5O)O4)O3)CC[C@H]2O[C@@H]1[C@@H](O)C[C@H](C)[C@H]1O[C@@]2(CCCCO2)CC[C@H]1C` [okadaic acid], the “abrogation of G2 checkpoint / G2 arrest” value in assay [6] was “abrogate the G2 checkpoint”.
For `CC(=O)CCCCn1c(=O)c2c(ncn2C)n(C)c1=O` [pentoxifylline], the “abrogation of G2 checkpoint / G2 arrest” value in assay [6] is given as “abrogate the G2 checkpoint”.
Take `CN[C@@H]1C[C@H]2O[C@@](C)([C@@H]1OC)n1c3ccccc3c3c4c(c5c6ccccc6n2c5c31)C(=O)NC4` [staurosporine]: the “abrogation of G2 checkpoint / G2 arrest” value in assay [6] was “abrogate the G2 checkpoint”.
